Columns and labels:
Experiment in all cases: cells
[1] = system: NCI-H28; format: functional, cell-based, Homo sapiens; details: Homo sapiens, NCI-H28;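 also: growth inhibition of human NCI-H28 cells, read out as cell viability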
Description: SANGER: Inhibition of human NCI-H28 cell growth in a cell viability assay.

[2] = system: CTB-1; format: functional, cell-based; details: Homo sapiens
Description: SANGER: Inhibition of human CTB-1 cell growth in a cell viability assay.

[3] = system: LAN-6; format: functional, cell-based, Homo sapiens; details: Homo sapiens, LAN-6;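 also: growth inhibition of LAN-6 cells, determined with a cell viability assay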
Description: SANGER: Inhibition of human LAN-6 cell growth in a cell viability assay.

[4] = system: NCI-H2122; format: functional, cell-based, Homo sapiens; details: Homo sapiens, NCI-H2122;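 also: growth inhibition of the cells, read out with a cell viability assay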
Description: SANGER: Inhibition of human NCI-H2122 cell growth in a cell viability assay.

[5] = system: SK-PN-DW; format: functional, cell-based; details: Homo sapiens;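 also: growth inhibition measured with a viability assay on these cells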
Description: SANGER: Inhibition of human SK-PN-DW cell growth in a cell viability assay.

[6] = system: COR-L88; format: functional, cell-based; details: Homo sapiens;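 also: growth inhibition of COR-L88 cells, read out with a cell viability assay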
Description: SANGER: Inhibition of human COR-L88 cell growth in a cell viability assay.

[7] = system: SNU-C2B; format: functional, cell-based, Homo sapiens; details: Homo sapiens, SNU-C2B;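 also: cell viability readout used to measure compound-driven suppression of SNU-C2B cell proliferation, IC50 marking half-maximal growth inhibition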
Description: SANGER: Inhibition of human SNU-C2B cell growth in a cell viability assay.

[8] = system: GT3TKB; format: functional, cell-based, Homo sapiens; details: Homo sapiens, GT3TKB;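 also: growth inhibition of the cell line, read out with a cell viability assay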
Description: SANGER: Inhibition of human GT3TKB cell growth in a cell viability assay.

[9] = system: NCI-H2170; format: functional, cell-based, Homo sapiens; details: Homo sapiens, NCI-H2170;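 also: cell viability assay measuring growth inhibition of human NCI-H2170 cancer cells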
Description: SANGER: Inhibition of human NCI-H2170 cell growth in a cell viability assay.

[10] = system: BV-173; format: functional, cell-based; details: Homo sapiens
Description: SANGER: Inhibition of human BV-173 cell growth in a cell viability assay.

[11] = system: PC-14; format: functional, cell-based, Homo sapiens; details: Homo sapiens, PC-14;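 also: cell viability assay measuring inhibition of PC-14 cell growth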
Description: SANGER: Inhibition of human PC-14 cell growth in a cell viability assay.

[12] = system: HT-29; format: functional, cell-based, Homo sapiens; details: Homo sapiens, HT-29;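 also: growth inhibition of human HT-29 cells, read out by a cell viability assay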
Description: SANGER: Inhibition of human HT-29 cell growth in a cell viability assay.

[13] = system: C2BBe1; format: functional, cell-based, Homo sapiens; details: Homo sapiens, C2BBe1;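 also: growth inhibition of C2BBe1 cells, read out through a viability assay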
Description: SANGER: Inhibition of human C2BBe1 cell growth in a cell viability assay.

[14] = system: BPH-1; format: functional, cell-based, Homo sapiens; details: Homo sapiens, BPH-1;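 also: cell viability assay measuring growth inhibition of human BPH-1 cells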
Description: SANGER: Inhibition of human BPH-1 cell growth in a cell viability assay.

[15] = system: KYSE-180; format: functional, cell-based, Homo sapiens; details: Homo sapiens, KYSE-180;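 also: growth inhibition of KYSE-180 cells, read out with a cell viability assay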
Description: SANGER: Inhibition of human KYSE-180 cell growth in a cell viability assay.

[16] = system: RPMI-8866; format: functional, cell-based; details: Homo sapiens
Description: SANGER: Inhibition of human RPMI-8866 cell growth in a cell viability assay.

[17] = system: MHH-ES-1; format: functional, cell-based, Homo sapiens; details: Homo sapiens, MHH-ES-1;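 also: cell growth inhibition measured by a cell viability assay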
Description: SANGER: Inhibition of human MHH-ES-1 cell growth in a cell viability assay.

[18] = system: A-427; format: functional, cell-based, Homo sapiens; details: Homo sapiens, A-427;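 also: growth inhibition of human A-427 cells, read out by a cell viability assay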
Description: SANGER: Inhibition of human A427 cell growth in a cell viability assay.

[19] = system: A204; format: functional, cell-based, Homo sapiens; details: Homo sapiens, A204;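 also: growth inhibition of human A204 cells, read out with a cell viability assay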
Description: SANGER: Inhibition of human A204 cell growth in a cell viability assay.

[20] = system: LXF-289 cell line; format: functional, cell-based, Homo sapiens; details: Homo sapiens, LXF-289
Description: SANGER: Inhibition of human LXF-289 cell growth in a cell viability assay.

[21] = system: Calu-6; format: functional, cell-based, Homo sapiens; details: Homo sapiens, Calu-6;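 also: growth of human Calu-6 cells, read out by a cell viability assay, IC50 marking inhibition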
Description: SANGER: Inhibition of human Calu-6 cell growth in a cell viability assay.

[22] = system: CGTH-W-1; format: functional, cell-based, Homo sapiens; details: Homo sapiens, CGTH-W-1;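 also: growth inhibition of human CGTH-W-1 cells measured by cell viability assay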
Description: SANGER: Inhibition of human CGTH-W-1 cell growth in a cell viability assay.

[23] = system: J82; format: functional, cell-based; details: Homo sapiens;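 also: growth inhibition of J82 cells, read out with a cell viability assay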
Description: SANGER: Inhibition of human J82 cell growth in a cell viability assay.

[24] = system: COLO-680N; format: functional, cell-based, Homo sapiens; details: Homo sapiens, COLO-680N;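 also: cell viability assay used to measure inhibition of COLO-680N cell growth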
Description: SANGER: Inhibition of human COLO-680N cell growth in a cell viability assay.

[25] = system: COLO-678; format: functional, cell-based, Homo sapiens; details: Homo sapiens, COLO-678
Description: SANGER: Inhibition of human COLO-678 cell growth in a cell viability assay.

[26] = system: DJM-1; format: functional, cell-based, Homo sapiens; details: Homo sapiens, DJM-1;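 also: growth inhibition of human DJM-1 cells, read out by a cell viability assay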
Description: SANGER: Inhibition of human DJM-1 cell growth in a cell viability assay.

[27] = system: TK-10; format: functional, cell-based, Homo sapiens; details: Homo sapiens, TK-10;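 also: growth inhibition of TK-10 cells, read out in a cell viability assay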
Description: SANGER: Inhibition of human TK10 cell growth in a cell viability assay.

[28] = system: SAOS-2; format: functional, cell-based, Homo sapiens; details: Homo sapiens, SAOS-2;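 also: growth inhibition of human Saos-2 cells determined by a cell viability assay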
Description: SANGER: Inhibition of human Saos-2 cell growth in a cell viability assay.

[29] = system: NB13; format: functional, cell-based, Homo sapiens; details: Homo sapiens, NB13;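 also: cell viability readout measuring growth inhibition of human NB13 cells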
Description: SANGER: Inhibition of human NB13 cell growth in a cell viability assay.

[30] = system: COLO-792; format: functional, cell-based, Homo sapiens; details: Homo sapiens, COLO-792
Description: SANGER: Inhibition of human COLO-792 cell growth in a cell viability assay.

[31] = system: SK-MEL-28; format: functional, cell-based; details: Homo sapiens;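 also: growth inhibition of human SK-MEL-28 cells, read out with a cell viability assay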
Description: SANGER: Inhibition of human SK-MEL-28 cell growth in a cell viability assay.

[32] = system: YKG-1; format: functional, cell-based, Homo sapiens; details: Homo sapiens, YKG-1;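 also: cell growth inhibition, read out with a viability assay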
Description: SANGER: Inhibition of human YKG-1 cell growth in a cell viability assay.

[33] = system: CP50-MEL-B; format: functional, cell-based, Homo sapiens; details: Homo sapiens, CP50-MEL-B;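 also: growth inhibition of the human cell line, measured with a cell viability read-out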
Description: SANGER: Inhibition of human CP50-MEL-B cell growth in a cell viability assay.

[34] = system: GAK; format: functional, cell-based, Homo sapiens; details: Homo sapiens, GAK;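 also: cell growth inhibition read out by a cell viability assay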
Description: SANGER: Inhibition of human GAK cell growth in a cell viability assay.

[35] = system: VM-CUB-1; format: functional, cell-based; details: Homo sapiens;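 also: cell viability assay measuring growth inhibition of the human VM-CUB-1 cell line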
Description: SANGER: Inhibition of human VM-CUB-1 cell growth in a cell viability assay.

[36] = system: HSC-2; format: functional, cell-based, Homo sapiens; details: Homo sapiens, HSC-2;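 also: growth inhibition of human HSC-2 cells, read out by a cell viability assay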
Description: SANGER: Inhibition of human HSC-2 cell growth in a cell viability assay.

[37] = system: D-502MG; format: functional, cell-based, Homo sapiens; details: Homo sapiens, D-502MG
Description: SANGER: Inhibition of human D-502MG cell growth in a cell viability assay.

[38] = system: CAL-12T; format: functional, cell-based, Homo sapiens; details: Homo sapiens, CAL-12T;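 also: growth inhibition of human CAL-12T cells, read out with a cell viability assay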
Description: SANGER: Inhibition of human CAL-12T cell growth in a cell viability assay.

[39] = system: LN-405; format: functional, cell-based, Homo sapiens; details: Homo sapiens, LN-405
Description: SANGER: Inhibition of human LN-405 cell growth in a cell viability assay.

[40] = system: 769-P; format: functional, cell-based, Homo sapiens; details: Homo sapiens, 769-P
Description: SANGER: Inhibition of human 769-P cell growth in a cell viability assay.

[41] = system: BHT-101; format: functional, cell-based, Homo sapiens; details: Homo sapiens, BHT-101
Description: SANGER: Inhibition of human BHT-101 cell growth in a cell viability assay.

[42] = system: PANC-03-27; format: functional, cell-based, Homo sapiens; details: Homo sapiens, PANC-03-27
Description: SANGER: Inhibition of human PANC-03-27 cell growth in a cell viability assay.

[43] = system: SHP77; format: functional, cell-based, Homo sapiens, SHP-77; details: Homo sapiens, SHP77;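 also: growth inhibition of human SHP-77 cells measured by a cell viability assay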
Description: SANGER: Inhibition of human SHP-77 cell growth in a cell viability assay.

[44] = system: NCI-H1623; format: functional, cell-based, Homo sapiens; details: Homo sapiens, NCI-H1623;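 also: cell viability assay used as the read-out for growth inhibition of NCI-H1623 cells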
Description: SANGER: Inhibition of human NCI-H1623 cell growth in a cell viability assay.

[45] = system: J-RT3-T3-5; format: functional, cell-based; details: Homo sapiens;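 also: cell viability assay measuring growth inhibition of human J-RT3-T3-5 cells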
Description: SANGER: Inhibition of human J-RT3-T3-5 cell growth in a cell viability assay.

[46] = system: LAMA-84; format: functional, cell-based; details: Homo sapiens;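 also: growth inhibition of LAMA-84 cells, read out with a cell viability assay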
Description: SANGER: Inhibition of human LAMA-84 cell growth in a cell viability assay.

[47] = system: BB30-HNC; format: functional, cell-based, Homo sapiens; details: Homo sapiens, BB30-HNC;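 also: growth inhibition of the cultured cell line, read out by a cell viability assay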
Description: SANGER: Inhibition of human BB30-HNC cell growth in a cell viability assay.

[48] = system: TE-9; format: functional, cell-based, Homo sapiens; details: Homo sapiens, TE-9;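 also: cell growth inhibition, measured with a cell viability readout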
Description: SANGER: Inhibition of human TE-9 cell growth in a cell viability assay.

[49] = system: LU-99A; format: functional, cell-based, Homo sapiens; details: Homo sapiens, LU-99A;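 also: growth inhibition of LU-99A cells, read out with a cell viability assay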
Description: SANGER: Inhibition of human LU-99A cell growth in a cell viability assay.

[50] = system: KNS-42; format: functional, cell-based, Homo sapiens; details: Homo sapiens, KNS-42;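 also: growth inhibition of KNS-42 cells, read out with a cell viability assay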
Description: SANGER: Inhibition of human KNS-42 cell growth in a cell viability assay.

[51] = system: HD-MY-Z; format: functional, cell-based, Homo sapiens; details: Homo sapiens, HD-MY-Z;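 also: growth inhibition of HD-MY-Z cells, read out with a cell viability assay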
Description: SANGER: Inhibition of human HD-MY-Z cell growth in a cell viability assay.

C[C@]1(O)C[C@@H](c2nc(-c3ccc4ccc(-c5ccccc5)nc4c3)c3c(N)nccn32)C1 [LINSITINIB]
IC50 [1]: > 2560 nM | IC50 [2]: > 2560 nM | IC50 [3]: 263 nM | IC50 [4]: 233 nM | IC50 [5]: 1910 nM | IC50 [6]: > 2560 nM | IC50 [7]: > 2560 nM | IC50 [8]: > 2560 nM | IC50 [9]: > 2560 nM | IC50 [10]: > 2560 nM | IC50 [11]: > 2560 nM | IC50 [12]: 242 nM | IC50 [13]: > 2560 nM | IC50 [14]: > 2560 nM | IC50 [15]: > 2560 nM | IC50 [16]: > 2560 nM | IC50 [17]: > 2560 nM | IC50 [18]: > 2560 nM | IC50 [19]: > 2560 nM | IC50 [20]: > 2560 nM | IC50 [21]: > 2560 nM | IC50 [22]: > 2560 nM | IC50 [23]: > 2560 nM | IC50 [24]: > 2560 nM | IC50 [25]: > 2560 nM | IC50 [26]: > 2560 nM | IC50 [27]: > 2560 nM | IC50 [28]: 165 nM | IC50 [29]: > 2560 nM | IC50 [30]: > 2560 nM | IC50 [31]: > 2560 nM | IC50 [32]: > 2560 nM | IC50 [33]: > 2560 nM | IC50 [34]: > 2560 nM | IC50 [35]: > 2560 nM | IC50 [36]: > 2560 nM | IC50 [37]: > 2560 nM | IC50 [38]: > 2560 nM | IC50 [39]: > 2560 nM | IC50 [40]: > 2560 nM | IC50 [41]: > 2560 nM | IC50 [42]: > 2560 nM | IC50 [43]: > 2560 nM | IC50 [44]: > 2560 nM | IC50 [45]: > 2560 nM | IC50 [46]: > 2560 nM | IC50 [47]: > 2560 nM | IC50 [48]: > 2560 nM | IC50 [49]: > 2560 nM | IC50 [50]: > 2560 nM | IC50 [51]: > 2560 nM

COc1ccc(C2=N[C@@H](c3ccc(Cl)cc3)[C@@H](c3ccc(Cl)cc3)N2C(=O)N2CCNC(=O)C2)c(OC(C)C)c1 [NUTLIN-3]
IC50 [1]: 4630 nM | IC50 [2]: 2020 nM | IC50 [3]: > 8000 nM | IC50 [4]: 6590 nM | IC50 [5]: > 8000 nM | IC50 [6]: > 8000 nM | IC50 [7]: > 8000 nM | IC50 [8]: > 8000 nM | IC50 [9]: > 8000 nM | IC50 [10]: 2840 nM | IC50 [11]: > 8000 nM | IC50 [12]: > 8000 nM | IC50 [13]: 3170 nM | IC50 [14]: > 8000 nM | IC50 [15]: > 8000 nM | IC50 [16]: 2560 nM | IC50 [17]: > 8000 nM | IC50 [18]: 6880 nM | IC50 [19]: 3060 nM | IC50 [20]: > 8000 nM | IC50 [21]: > 8000 nM | IC50 [22]: > 8000 nM | IC50 [23]: > 8000 nM | IC50 [24]: > 8000 nM | IC50 [25]: > 8000 nM | IC50 [26]: > 8000 nM | IC50 [27]: > 8000 nM | IC50 [28]: > 8000 nM | IC50 [29]: > 8000 nM | IC50 [30]: > 8000 nM | IC50 [31]: > 8000 nM | IC50 [32]: > 8000 nM | IC50 [33]: 4240 nM | IC50 [34]: > 8000 nM | IC50 [35]: > 8000 nM | IC50 [36]: > 8000 nM | IC50 [37]: 2970 nM | IC50 [38]: > 8000 nM | IC50 [39]: > 8000 nM | IC50 [40]: > 8000 nM | IC50 [41]: > 8000 nM | IC50 [42]: > 8000 nM | IC50 [43]: > 8000 nM | IC50 [44]: > 8000 nM | IC50 [45]: > 8000 nM | IC50 [46]: > 8000 nM | IC50 [47]: > 8000 nM | IC50 [48]: > 8000 nM | IC50 [49]: > 8000 nM | IC50 [50]: > 8000 nM | IC50 [51]: > 8000 nM

From ChEMBL document CHEMBL1201861, “Genomics of Drug Sensitity in Cancer screening data, Wellcome Trust Sanger Institute”
